From paper PMC10082216 (Nature Communications, 2023)
Where “and” joins values, the source holds several entries; their conditions need not be identical. Equal entries are not always repeated. Entries after “also recorded” stand apart in the source; their conditions may differ.

Columns and labels:
[1] = tested on: stage V gametocytes of P. falciparum (3D7 pULG8-GFP strain); assay: Post-screening validation with 96-well plate microsphiltration (Paris); format: cell-based, Plasmodium falciparum; conditions: for retention 24 h after drug washout: 24 h exposure, remeasured additional 24 h after washout; for confirmation of stiffening activity upon post-screening: DRA, 3D7, Paris laboratory; for Normalized retention rate: gametocytes exposed 24 h
Description: Plasmodium falciparum NF54 strain parasites (used for screening campaign) were cultured at 4% hematocrit in RBCs from informed blood donors (blood group A) as previously described. Parasites were taken from the -80 °C freezer, then rapidly melt for 1 minute in a 37 °C water bath. A saline solution was gently added to avoid the lysis. Firstly, NaCl dissolved at 12% in distilled water (1/5 of the volume measured in the cryovial) and then NaCl dissolved at 1.6% (9 times the cryovial’s volume). After that, fresh RBCs were added to allow parasites re-growth. Infected RBCs were kept in RPMI medium (Sigma-Aldrich, cat. no. R4130), supplemented with 10% of decomplemented human serum, hypoxanthine 50 mg/l (Sigma-Aldrich, cat. no. H9636). Biobank of Castilla y Leon and Centro de Transfusiones de Madrid as providers of human red blood cell concentrates. The production of gametocytes was induced from a 0.5% ring-stage parasitemia (day 0). Medium was changed daily to induce gametocytes differentiation, as previously described. At day 17, gametocytes were concentrated using a density gradient medium (NycoPrep 1.077, Progen cat. no. 1114550)[27]. Parasitemia was adjusted by FACS (SYBR-Green and MitoTracker double staining, 3–5% targeted). Hematocrit was adjusted to 0.5% by adding fresh RBCs and controlled by manual counting in a Neubauer chamber (Celeromics, cat. no. 717810). Finally, the gametocyte suspension was poured (45 μL/well) into the compound-containing 384-well microplate, then incubated 24 hours both for the screening campaign and the dose-response analysis. Both asexual and sexual stages were cultivated in RPMI 1640 supplemented with 25 mM HEPES, 50 mg/L hypoxanthine, 50 μg/mL gentami-cin, 10% pooled heat-inactivated human serum (A^+). Each batch of serum was obtained by pooling 10 serum bags from different donors. Serum was kept at −20 °C and thawed in a warmed water bath before use. A new serum batch was prepared when the previous was completed. For dose-response analysis and microfluidics, both the 3D7-pULG8-GFP[67] and the NF54 strain (BEI Resources, cat. no. MRA-1000) were tested. The 3D7 strain was cultivated as described above with the addition of 0.2% NaHCO3 and 2.5 nM of WR99210 for both asexual and sexual stages.
Both fixed-dose and dose-response analyses were performed according to a second protocol (Paris laboratory) to validate the selected hits from primary screening. Briefly, the gametocyte suspension was loaded into a 96-well empty plate (200 µL/well). For each dose-response, first, well volume was doubled and compound was added to obtain 10 µM final concentration. For the dose-response analysis, the gametocyte suspension was then manually serially diluted 1/2 for 12 points, obtaining 5 nM as the lower concentration. The same operation was done with DMSO to have a negative control. After 24 hours of incubation at 37 °C, gametocyte suspensions were loaded into a 96-well filtration plate[28] and microsphiltration was manually performed at 37 °C. Up and downstream samples were incubated for 30 min with Hoechst 33342 nuclear staining (1/1000 diluted in PBS, Thermo Fischer cat. no. H3570), washed, resuspended in 200 µL of PBS and then loaded into an empty 96-well plate before FACSCanto (BD Biosciences, Franklin Lakes, New Jersey, USA) quantification. Data from cytofluorimetry were analyzed with FlowJo V12. As per previously described experiences with this technique, to avoid the risk of microbead layers saturation, a microsphiltration experiment was repeated when the upstream gametocytemia exceeded 10%[25],[69].

[2] = Hit scoring on safety in human subjects and pharmacokinetics; conditions: for Score (PK): peak plasma concentration vs IC50
Text: Hits from the ReFrame library were further selected based on safety, preferably oral administration (high score if oral), and potential availability for widespread use.

| SMILES | retention 24 h after drug washout [1] [%] | confirmation of stiffening activity upon post-screening [1] | IC50 ([1]; Plasmodium falciparum, 3D7, 96-well, five independent experiments, read-out: stiffening IC50, median (±SD)) [nM] | Normalized retention rate [1] [%] | persistence of stiffening activity after drug washout ([1]; mature gametocytes) [h] | Score (safety) [2] | Score (PK) [2] | confirmation of stiffening activity upon post-screening ([1]; listed as L-THP) | Retention rates (single wells, Figure 4b) ([1]; gametocytes exposed to drugs 24 h) |
| --- | --- | --- | --- | --- | --- | --- | --- | --- | --- |
| CNC(=O)N1C[C@@H](C)N(c2ccc(C(=O)Nc3ccc(-c4ccc(-c5c[nH]c([C@@H]6CCCN6C(=O)[C@@H](NC(=O)OC)C(C)C)n5)cc4)c(OC(F)(F)F)c3)cn2)C[C@@H]1C [TD-6450] | 43 | confirmed | 280 ± 580 | 27 | ≥ 24 | 3 | 3 (Peak plasma concentration between IC50 and 3 IC50 (Score = 3)) |  |  |
| COc1cc2c(cc1OC)[C@@H]1Cc3ccc(OC)c(OC)c3CN1CC2 [(S)-(-)-Tetrahydropalmatine] |  |  |  |  |  | 3 | 6 (Peak plasma concentration higher than 3 IC50 (Score = 6)) | not fully confirmed; also recorded: did not confirm |  |
| C[C@H]1Cc2c([nH]c3cc(Cl)c(F)cc23)[C@@]2(N1)C(=O)Nc1ccc(Cl)cc12 [NITD609, cipargamin] | 23 | confirmed |  | 66 |  | 3 | 6 (Peak plasma concentration higher than 3 IC50 (Score = 6)) |  | 36.4701 and 62.0956 and 72.239 |
